Consider 11 compounds from ChEMBL document CHEMBL1201862, “PubChem BioAssay data set” (2004).

In general, EC50 refers to the concentration giving half of the maximal effect. One may read the IC50 as the concentration that inhibits the measured activity by half. Usually AC50 stands for the concentration at which the activity in the assay is half-maximal. The term IC90 denotes the concentration needed for an effect of 90%.

Where “and” joins values, the source holds several entries; their conditions need not be identical. Identical values can stand only once. Calls of active or inactive are those of the source. Where only a bound is given, the exact number is not on record here.

For one experiment, the target named is Kallikrein-7 (Homo sapiens, UniProt P49862). As to the kind of experiment: Fluorescence Intensity-based biochemical primary high throughput dose response assay to identify activators of kallikrein-7 (K7) zymogen.
Sequence of Kallikrein-7 (P49862 whole entry): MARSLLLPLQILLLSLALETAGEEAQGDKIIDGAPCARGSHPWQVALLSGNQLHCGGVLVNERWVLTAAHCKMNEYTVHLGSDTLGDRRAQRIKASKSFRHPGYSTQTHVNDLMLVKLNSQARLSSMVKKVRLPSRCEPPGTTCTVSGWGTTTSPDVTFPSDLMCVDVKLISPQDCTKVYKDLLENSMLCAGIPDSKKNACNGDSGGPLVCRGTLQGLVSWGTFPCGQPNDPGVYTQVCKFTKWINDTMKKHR
Experiment [1] can be described thus: cytotoxicity toward NIH3T3 fibroblasts, dose response, counter-screen, cell-based, ATP luminescence, mouse fibroblasts (AID 2010).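 Also: cells exposed to compound for about 90 hours before reading.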 The experiment is classed as functional. On the technique in general: A counterscreen serves to expose hits that act by an unwanted route or on another target.
Experiment [2] is described as follows: inhibitors of intracellular T. cruzi replication, confirmation, NIH3T3 host cells, beta-gal luminescence (AID 2044).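 Also: intracellular parasites grown in NIH/3T3 mouse fibroblasts as host cells; luminescent beta-galactosidase reporter signal from transgenic T. cruzi replicating inside host cells; inhibitors lower the luminescence signal.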 The class given is functional, cell-based.
Experiment [3] has as its target Disintegrin and metalloproteinase domain-containing protein 17 (Homo sapiens, UniProt P78536). As to the kind of experiment: ADAM17 protease inhibitors, dose response, counter-screen for ADAM10 exosite inhibitor project, biochemical, quenched FRET substrate (AID 743253).
The target in the next experiment is T1, Streptokinase A (Streptococcus pyogenes serotype M1, UniProt P10520).
T1 sequence (P10520 whole entry): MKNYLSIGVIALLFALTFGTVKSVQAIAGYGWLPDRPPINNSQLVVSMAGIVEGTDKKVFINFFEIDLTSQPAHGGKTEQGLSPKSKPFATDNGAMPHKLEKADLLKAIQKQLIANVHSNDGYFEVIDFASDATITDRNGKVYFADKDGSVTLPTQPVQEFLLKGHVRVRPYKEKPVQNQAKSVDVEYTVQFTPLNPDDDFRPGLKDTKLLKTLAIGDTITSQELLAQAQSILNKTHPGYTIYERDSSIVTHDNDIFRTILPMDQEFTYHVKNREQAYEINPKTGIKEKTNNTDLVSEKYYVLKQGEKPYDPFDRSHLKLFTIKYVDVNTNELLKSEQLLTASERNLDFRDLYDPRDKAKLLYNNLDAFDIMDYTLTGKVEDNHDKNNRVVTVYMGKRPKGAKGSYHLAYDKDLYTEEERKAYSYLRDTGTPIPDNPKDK
As to the kind of experiment: S. pyogenes streptokinase expression inhibitors, potency, dose response, plasminogen activation absorbance, OD405 (AID 1914).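 Also: secreted streptokinase activity via plasminogen activation per viability signal from cell pellet.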 The experiment is classed as functional, Streptococcus pyogenes M1 GAS.

In a further experiment the test system is Streptococcus. As to the kind of experiment: Group A Streptococcus viability loss, dose response, counter-screen for streptokinase expression inhibitor project, luminescence, BacTiterGlo (AID 1915).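 Also: potency for reduction of bacterial viability or growth.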 The experiment is classed as functional, organism-based.
In experiment [4] the test system is Streptococcus sp. 'group A'. As to the kind of experiment: growth inhibition of control SK(-) GAS strain, dose response, counter-screen for streptokinase expression inhibitor project, luminescence, kanamycin, BacTiterGlo, confirmation (AID 1900). The class given is functional, organism-based.
The nature of experiment [5]: CEM21 cell cytotoxicity, dose response, cytotoxicity control, plate reader, dry powder (AID 687026). The experiment is classed as functional, cell-based.
Experiment [6] addresses NAD-dependent protein deacylase sirtuin-5, mitochondrial (Homo sapiens, UniProt Q9NXA8). As to the kind of experiment: SIRT5 desuccinylase inhibitors, dose response, biochemical, fluorescence imaging, cherry-pick, set 5 (AID 720591).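 Also: desuccinylation of succinyl peptide AMC substrate read as fluorescence after trypsin release; potency of inhibitors that lower fluorescence and may act on trypsin instead.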
Experiment [7] in a line: NIH:OVCAR-3 ovarian cancer cell cytotoxicity, dose response, PAX8 inhibitor project, plate reader, dry powder samples (AID 743044). The experiment is classed as functional, cell-based.
Experiment [8] is described as follows: A549 cell cytotoxicity, dose response, cytotoxicity control, 24 h, CellTiter-Glo luminescence, cherry-picks (AID 1053115). The experiment is classed as functional, cell-based. Conditions: A549, 24 h. In general terms: In ATP-based viability assays light output follows the ATP content of the culture.
In the next experiment the target is Paired box protein Pax-8 (Homo sapiens, UniProt Q06710). As to the kind of experiment: inhibitors of PAX8-driven TPO luciferase reporter, dose response, RMG-I cells, cherry-pick (AID 687027).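 Also: luciferase reporter driven by Pax8 target thyroperoxidase promoter measured by SteadyGlo luminescence.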 The class given is functional, cell-based.
Sequence of Paired box protein Pax-8 (Q06710 whole entry): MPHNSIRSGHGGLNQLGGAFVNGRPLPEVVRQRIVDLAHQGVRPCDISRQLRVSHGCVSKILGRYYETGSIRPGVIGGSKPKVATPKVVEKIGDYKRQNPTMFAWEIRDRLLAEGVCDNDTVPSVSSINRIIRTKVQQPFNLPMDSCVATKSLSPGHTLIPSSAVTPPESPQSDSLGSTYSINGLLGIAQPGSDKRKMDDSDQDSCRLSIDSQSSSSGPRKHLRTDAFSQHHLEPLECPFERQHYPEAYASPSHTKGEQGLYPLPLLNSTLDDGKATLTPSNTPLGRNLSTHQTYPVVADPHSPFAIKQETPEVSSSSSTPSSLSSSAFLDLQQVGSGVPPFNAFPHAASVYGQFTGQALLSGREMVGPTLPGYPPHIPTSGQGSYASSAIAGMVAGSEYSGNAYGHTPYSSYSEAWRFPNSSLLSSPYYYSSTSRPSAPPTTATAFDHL
The nature of experiment [9]: A2780 ovarian cancer cell cytotoxicity, dose response, cytotoxicity control, plate reader, dry powder samples (AID 743046). The experiment is classed as functional, cell-based.
Experiment [10] in a line: cytotoxicity in OVCAR8 ovarian cancer cells, dose response, PAX8 project, cell-based, plate reader, dry powder samples (AID 743197). The experiment is classed as functional. Conditions: OVCAR-8.
The nature of experiment [11]: non-specific cell cytotoxicity, dose response, cytotoxicity control for PAX8 inhibitor project, plate reader, dry powder samples (AID 743021). The experiment is classed as functional, cell-based.
The nature of experiment [12]: IOSE-T80 ovarian epithelial cell cytotoxicity, dose response, cytotoxicity control for PAX8 inhibitor project, plate reader, dry powder samples (AID 743045). The class given is functional, cell-based.
Experiment [13] in a line: PAX5 activity inhibitors, dose response, selectivity assay for PAX8 inhibitor project, cell-based, plate reader, dry powder samples (AID 743047).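 Also: HEK293 cells carrying a Pax5 driven CD19 promoter luciferase reporter; potency of inhibitors that lower reporter luminescence.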 The class given is functional.
Experiment [14] in a line: cytotoxicity in COV434 cells, dose response, cytotoxicity control for PAX8 inhibitor project, cell-based, plate reader, dry powder, SA7 (AID 743145). The class given is functional.
The nature of experiment [15]: cytotoxicity in COV362 ovarian cancer cells, dose response, cytotoxicity control for PAX8 inhibitor project, cell-based, plate reader, dry powder, SA12 (AID 743144). The experiment is classed as functional.
Experiment [16] can be described thus: PAX2 cell-based inhibition, dose response, selectivity assay for PAX8 inhibitor project, plate reader, dry powder samples (AID 743048).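 Also: HEK293 cells carrying a WT1 promoter luciferase reporter driven by expressed Pax2; potency is for inhibition of Pax2 driven reporter signal.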 The experiment is classed as functional.
Experiment [17] can be described thus: cytotoxicity in OV-90 ovarian cancer cells, dose response, PAX8 inhibitor project, cell-based, plate reader, dry powder, SA8 (AID 743149). The experiment is classed as functional.
Experiment [18] can be described thus: cytotoxicity dependent on PAX8, dose response, cell-based, plate reader, dry powder (AID 743049). The experiment is classed as functional.
Experiment [19] can be described thus: Late stage counterscreen for inhibitors of Trypanosoma brucei methionyl tRNA synthetase (MetRS): Luminescence-based cell-based high throughput dose response assay to identify compounds that are cytotoxic to Jurkat human T lymphocyte cells. The experiment is classed as functional.
A short description of experiment [20]: HepG2 cell cytotoxicity, dose response, cytotoxicity control, luminescence plate reader, powder samples, set 2 (AID 651860). The class given is functional, cell-based.
Experiment [21] is described as follows: MALME3 melanoma cell viability reduction, dose response, orthogonal assay for MITF inhibitor project, CellTiter-Glo luminescence, dry powder, set 5 (AID 651584). Conditions: MALME-3. The class given is functional, cell-based.
Experiment [22] in a line: SK-MEL-5 parental cell viability reduction, dose response, orthogonal assay for MITF inhibitor project, CellTiter-Glo luminescence, dry powder, set 8 (AID 651586). The experiment is classed as functional, cell-based.
A short description of experiment [23]: TRPM1 promoter luciferase reporter signal decrease, dose response, MITF inhibitor project, cell-based, SK-MEL-5, dry powder, set 8 (AID 624430). The experiment is classed as functional. (In general: A reporter such as luciferase makes a cellular process visible.)
Experiment [24] is described as follows: MITF Orthogonal Assay: SK-MEL-5 CTG Assay Measured in Cell-Based System Using Plate Reader - 2084-02_Inhibitor_Dose_DryPowder_Activity_Set7. The class given is functional.
Experiment [25] can be described thus: MITF Orthogonal Assay: MALME3 CTG Assay Measured in Cell-Based System Using Plate Reader - 2084-04_Inhibitor_Dose_DryPowder_Activity_Set6. The experiment is classed as functional. As to conditions: MALME-3.
A short description of experiment [26]: A375 melanoma cell viability loss, dose response, counter-screen for MITF modulator project, CellTiter-Glo luminescence, dry powder, set 9 (AID 651591). The class given is functional, cell-based. Conditions: A-375.
The nature of experiment [27]: TRPM1 promoter luciferase reporter signal decrease, dose response, MITF inhibitor project, cell-based, SK-MEL-5, dry powder, set 9 (AID 651588). The class given is functional.
A short description of experiment [28]: MITF: Counter assay: A375 proliferation Measured in Cell-Based System Using Plate Reader - 2084-03_Inhibitor_Dose_DryPowder_Activity_Set8. The class given is functional. As to conditions: A-375.
A short description of experiment [29]: inhibitors of non-replicating M. tuberculosis, dose response, luciferase, dry powder (AID 651620). The class given is functional. Conditions: Mycobacterium tuberculosis.
A short description of experiment [30]: growth inhibition of replicating M. tuberculosis, dose response, counter-screen, dry powder, IC90 (AID 651617). The experiment is classed as functional. As to conditions: Mycobacterium tuberculosis.
A short description of experiment [31]: inhibitors of non-replicating M. tuberculosis, dose response, luciferase, dry powder (AID 651619). The class given is functional. As to conditions: Mycobacterium tuberculosis.

Sequence of Disintegrin and metalloproteinase domain-containing protein 17 (P78536 whole entry, the tested form may be a part): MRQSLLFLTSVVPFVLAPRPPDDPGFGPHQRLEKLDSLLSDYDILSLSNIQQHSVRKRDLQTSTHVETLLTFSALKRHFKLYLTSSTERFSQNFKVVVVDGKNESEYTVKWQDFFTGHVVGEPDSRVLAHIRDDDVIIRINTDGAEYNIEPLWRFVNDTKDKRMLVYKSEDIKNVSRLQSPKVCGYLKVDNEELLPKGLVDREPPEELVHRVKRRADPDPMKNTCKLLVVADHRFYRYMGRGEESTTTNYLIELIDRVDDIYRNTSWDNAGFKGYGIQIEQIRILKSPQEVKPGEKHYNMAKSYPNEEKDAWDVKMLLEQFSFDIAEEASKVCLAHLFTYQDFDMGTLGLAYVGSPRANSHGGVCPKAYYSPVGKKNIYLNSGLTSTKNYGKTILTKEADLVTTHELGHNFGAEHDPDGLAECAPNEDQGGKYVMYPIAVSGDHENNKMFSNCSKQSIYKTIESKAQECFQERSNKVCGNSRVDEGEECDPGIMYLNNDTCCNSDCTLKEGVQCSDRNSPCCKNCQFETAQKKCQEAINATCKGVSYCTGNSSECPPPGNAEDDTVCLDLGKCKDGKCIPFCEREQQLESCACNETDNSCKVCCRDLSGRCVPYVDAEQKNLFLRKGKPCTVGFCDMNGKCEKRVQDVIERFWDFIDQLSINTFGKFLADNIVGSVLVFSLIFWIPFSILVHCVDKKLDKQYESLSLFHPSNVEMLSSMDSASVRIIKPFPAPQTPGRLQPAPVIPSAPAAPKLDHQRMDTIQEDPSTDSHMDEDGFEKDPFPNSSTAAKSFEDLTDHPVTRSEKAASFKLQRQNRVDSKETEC
Sequence of NAD-dependent protein deacylase sirtuin-5, mitochondrial (Q9NXA8 whole entry): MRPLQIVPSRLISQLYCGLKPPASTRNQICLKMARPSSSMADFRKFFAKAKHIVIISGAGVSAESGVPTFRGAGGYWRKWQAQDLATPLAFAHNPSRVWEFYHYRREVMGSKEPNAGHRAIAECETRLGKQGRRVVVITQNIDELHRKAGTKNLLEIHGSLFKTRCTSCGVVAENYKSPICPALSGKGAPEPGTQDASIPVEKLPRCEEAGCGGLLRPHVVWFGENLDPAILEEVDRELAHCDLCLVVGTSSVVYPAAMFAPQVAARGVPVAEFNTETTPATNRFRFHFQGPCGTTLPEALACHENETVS

Turning to `Cc1oc2c(CN3CCCCC3)c(O)ccc2c(=O)c1-c1ccc(Br)cc1`, the EC50 at Kallikrein-7 was 9.73 µM (active).
Turning to `COc1ccc(C(Nc2cc(C)ccn2)c2ccc3ccc(C)nc3c2O)cc1` (stereo unspecified), the EC50 was 24.7 µM (active) in experiment [1]; 2.15 µM (active) in [2]; > 150 µM (not active) on Streptokinase A; 54.9 µM (active) with Streptococcus; 14.3 µM (active) in [4]. In addition, the IC50 in [3] is > 69.5 µM (inactive).
`Nc1nonc1C(=O)NCCNCc1c(OCc2ccccc2F)ccc2ccccc12`: the AC50 in experiment [5] was > 70 µM (inactive) and 60.8 µM (active).
In the case of `CCOC(=O)C1=CCN(S(=O)(=O)c2ccc(C)cc2)C1c1cccc(Br)c1` (stereo unspecified), in [6], the AC50 is > 30 µM (inactive).
On to `COc1ccccc1-c1ccc2c(c1)[C@H]1[C@H](CCN1C(=O)C1CCCCC1)[C@@H](CO)N2`, for which the AC50 was 18.7 µM (active) in [7]; 42.1 µM (active) in [8]; 9.8 µM (active) on Paired box protein Pax-8; 5.38 µM (active) in experiment [9]; 30.4 µM (active) in experiment [10].
As for `COc1ccc(NC(=O)N2CCCCN3[C@@H](CO)[C@@H](c4ccc(C#Cc5ccccc5)cc4)[C@@H]3C2)cc1`, the half-maximal activity concentration (AC50) was 42.1 µM (active) in experiment [11]; 37.1 µM (active) in experiment [12]; 23.3 µM (active) in experiment [7]; 14.9 µM (active) on Paired box protein Pax-8; 22.2 µM (active) in experiment [9]; 40.1 µM (active) in [10].
For the compound `O=C(N1CCCCC1)[C@@]1(CCS(=O)(=O)c2ccccc2)N=C(c2ccc(OCCCO)cc2)O[C@H]1c1ccccc1`, the AC50 in experiment [13] is 41.9 µM (active); in experiment [14], > 100 µM (inactive); in experiment [7], 64.6 µM (active); in [15], > 100 µM (inactive); in experiment [9] it was 32.1 µM (active); in [16] it was 49.5 µM (active). In addition, the AC50 is > 100 µM (inactive) in experiment [17] and 87.1 µM (active) in [18].
As to `O=C(NCc1nc2ccccc2[nH]1)C1=C[C@H](c2csc3ccccc23)C[C@H](OCCCCO)O1`, the IC50 in experiment [19] is 60.3 µM (inactive).
On to `Cc1cc(C)c(S(=O)(=O)Nc2nc(C(C(=O)OC(C)C)C(=O)C(F)(F)F)nc3ccccc23)c(C)c1` (stereo unspecified), for which, in [20], the AC50 was > 52 µM (inactive).
As for `CCN1CCN(C2=C(Nc3ccc(F)cc3F)C(=O)c3ccccc3C2=O)CC1`, the concentration at half-maximal activity (AC50) was 26.3 µM (active) in experiment [21]; > 70 µM (inactive) in experiment [22]; 2.41 µM (active) in [23]; 8.99 µM (active) in experiment [24]; 26.3 µM (active) in [25]; > 70 µM (inactive) in [26]. Moreover, the concentration at half-maximal activity (AC50) was 12.3 µM (active) in experiment [27] and > 70 µM (inactive) in experiment [28].
`[N-]=[N+]=NCCOCCNC(=O)CCCOc1ccc(CSc2nnc(-c3ccc(Cl)cc3)o2)nc1`: the IC90 in [29] was 8 µM (active); in experiment [30], 62 µM (active); in experiment [31] it was 8 µM (active).
